# Measurements as given in article PMC7031696 (Cell chemical biology, 2019).
# “Also recorded” adds a separate entry of the source. Where two headings read alike, the source gives them in different places.
# Columns and labels:
# [1] = tested on: 3D7-MR4 trophozoite parasite-infected RBCs; test: Metabolomic profiling (hydrophilic metabolite changes, UHPLC-MS); assay type: cell-based, Plasmodium falciparum
# [2] = tested on: asynchronous 3D7-A10 parasite cultures; test: Standard 72-h exposure asexual blood stage susceptibility assay (IC50^72h); assay type: cell-based, Plasmodium falciparum; details: Plasmodium falciparum, 3D7, 72 h, read-out: Overall (72hr assay) Mean IC50 (IC50^72h)
# [3] = tested on: Plasmodium falciparum 3D7-A10 parasites; test: Stage specificity assay (8-h exposure of synchronized stages, IC50^8h); assay type: cell-based; details: for IC50: Plasmodium falciparum
smiles,measurement,setting,value
"CCCCN(CCCC)CC(O)c1cc(Cl)cc2c1-c1ccc(Cl)cc1/C2=C/c1ccc(Cl)cc1 (centres unmarked) [Lumefantrine, reference compound]",peptide levels (hemoglobin catabolism signature),"[1]; 10 × IC50^72h, 2.5 hr, trophozoites",minor peptide increases
same,Log2(fold changes) 3-phosphoglycerate,"[1]; metabolite 3-phosphoglycerate, log2 fold change",0.2561
same,Log2(fold changes) 4-Pyridoxic acid,"[1]; metabolite 4-Pyridoxic acid, log2 fold change",0.0070
same,Log2(fold changes) 4-aminobutyrate,"[1]; metabolite 4-aminobutyrate, log2 fold change",-0.1610
same,Log2(fold changes) 4-phosphopantetheine,"[1]; metabolite 4-phosphopantetheine, log2 fold change",0.0000
same,Log2(fold changes) 4-phosphopantothenate,"[1]; metabolite 4-phosphopantothenate, log2 fold change",0.0324
same,Log2(fold changes) 5-aminopentanoic acid,"[1]; metabolite 5-aminopentanoic acid, log2 fold change",0.0000
same,Log2(fold changes) 5-methyl-THF,"[1]; metabolite 5-methyl-THF, log2 fold change",0.0000
same,Log2(fold changes) 5-phosphoribosyl-1-pyrophosphate,"[1]; metabolite 5-phosphoribosyl-1-pyrophosphate, log2 fold change",0.0000
same,Log2(fold changes) 6-phospho-D-gluconate,"[1]; metabolite 6-phospho-D-gluconate, log2 fold change",-0.0221
same,Log2(fold change) HVDD,[1]; metabolite HVDD,0.0000
same,Log2(fold change) Hydroxyisocaproic acid,[1]; metabolite Hydroxyisocaproic acid,0.0000
same,Log2(fold change) IDP,[1]; metabolite IDP,0.0726
same,Log2(fold change) IMP,[1]; metabolite IMP,0.0056
same,Log2(fold change) Inositol,[1]; metabolite Inositol,0.0000
same,Log2(fold change) Isopentyl-PP,[1]; metabolite Isopentyl-PP,0.0000
same,Log2(fold change) L-arginino-succinate,[1]; metabolite L-arginino-succinate,-0.9519
same,Log2(fold change) LD,[1]; metabolite LD,-0.1057
same,Log2(fold change) Myristoyl/tetradecanoyl-CoA,[1]; metabolite Myristoyl/tetradecanoyl-CoA,0.0333
same,Log2(fold change) N-Acetyl-L-alanine,[1]; metabolite N-Acetyl-L-alanine,-0.2647
same,Log2(fold change) N-acetyl-L-ornithine,[1]; metabolite N-acetyl-L-ornithine,-0.6357
same,Log2(fold change) N-acetyl-glucosamine-1/6-phosphate,[1]; metabolite N-acetyl-glucosamine-1/6-phosphate,0.0000
same,Log2(fold change) N-acetyl-glutamate,[1]; metabolite N-acetyl-glutamate,-0.0437
same,Log2(fold change) N-acetyl-glutamine,[1]; metabolite N-acetyl-glutamine,0.0000
same,Log2(fold change) N-carbamoyl-L-aspartate,[1]; metabolite N-carbamoyl-L-aspartate,-0.1460
same,Log2(fold change) NAD+,[1]; metabolite NAD+,-0.0402
same,Log2(fold change) NADH,[1]; metabolite NADH,0.0000
same,Log2(fold change) NADP+,[1]; metabolite NADP+,-0.0151
same,Log2(fold change) NADPH,[1]; metabolite NADPH,-0.2368
same,Log2(fold change) O-acetyl-L-serine,[1]; metabolite O-acetyl-L-serine,0.0000
same,Log2(fold change) Octoluse 8/1P,[1]; metabolite Octoluse 8/1P,-0.0627
same,Log2(fold change) Octoluse Bisphosphate,[1]; metabolite Octoluse Bisphosphate,-0.2224
same,Log2(fold change) PD,[1]; metabolite PD,-0.6715
same,Log2(fold change) PE,[1]; metabolite PE,-0.8261
same,Log2(fold change) PEE,[1]; metabolite PEE,-0.8026
same,Log2(fold change) PEEK,[1]; metabolite PEEK,-1.0553
same,Log2(fold change) PVNF,[1]; metabolite PVNF,-1.0323
same,Log2(fold change) Pyroglutamic acid,[1]; metabolite Pyroglutamic acid,-0.2992
same,Log2(fold change) Pyrophosphate,[1]; metabolite Pyrophosphate,0.0000
same,Log2(fold change) Ribose-5-phosphate,[1]; metabolite Ribose-5-phosphate,-0.3541
same,Log2(fold change) S-adenosyl-L-homocysteine,[1]; metabolite S-adenosyl-L-homocysteine,-0.4489
same,Log2(fold change) S-adenosyl-L-methioninamine,[1]; metabolite S-adenosyl-L-methioninamine,0.0000
same,Log2(fold change) S-adenosyl-L-methionine,[1]; metabolite S-adenosyl-L-methionine,0.0000
same,Log2(fold change) S-methyl-5'-thioadenosine,[1]; metabolite S-methyl-5'-thioadenosine,0.0780
same,Log2(fold change) SD,[1]; metabolite SD,-0.5378
same,Log2(fold change) SDL,[1]; metabolite SDL,-0.2618
same,Log2(fold change) SID,[1]; metabolite SID,-0.7176
same,Log2(fold change) Sedoheptulose bisphosphate,[1]; metabolite Sedoheptulose bisphosphate,-0.0691
same,Log2(fold change) Thiamine pyrophosphate,[1]; metabolite Thiamine pyrophosphate,0.0528
same,Log2(fold changes) UDP-D-glucose,"[1]; metabolite UDP-D-glucose, log2 fold change",0.0221
same,Log2(fold changes) UDP-D-glucuronate,"[1]; metabolite UDP-D-glucuronate, log2 fold change",0.0757
same,Log2(fold changes) UDP-N-acetyl-glucosamine,"[1]; metabolite UDP-N-acetyl-glucosamine, log2 fold change",-0.0029
same,Log2(fold changes) UDP,"[1]; metabolite UDP, log2 fold change",0.0413
same,Log2(fold changes) UMP,"[1]; metabolite UMP, log2 fold change",0.0984
same,Log2(fold changes) UTP,"[1]; metabolite UTP, log2 fold change",0.0275
same,Log2(fold change) hydroxyphenylpyruvate,[1]; metabolite hydroxyphenylpyruvate,0.0000
same,Log2(fold change) hydroxyproline/Aminolevulinate,[1]; metabolite hydroxyproline/Aminolevulinate,-0.1667
same,Log2(fold change) hypoxanthine,[1]; metabolite hypoxanthine,0.0000
same,Log2(fold change) indole,[1]; metabolite indole,0.0000
same,Log2(fold change) inosine,[1]; metabolite inosine,-0.7307
same,Log2(fold change) isoleucine,[1]; metabolite isoleucine,-0.3373
same,Log2(fold change) lactate,[1]; metabolite lactate,-0.7427
same,Log2(fold change) leucine,[1]; metabolite leucine,-0.5467
same,Log2(fold change) lysine,[1]; metabolite lysine,-0.9287
same,Log2(fold change) malate,[1]; metabolite malate,-0.2859
same,Log2(fold change) maleic acid,[1]; metabolite maleic acid,-0.2558
same,Log2(fold change) methionine,[1]; metabolite methionine,-0.5836
same,Log2(fold change) myo-inositol,[1]; metabolite myo-inositol,-1.2017
same,Log2(fold change) nicotinamide mononucleotide,[1]; metabolite nicotinamide mononucleotide,-0.1717
same,Log2(fold change) nicotinate,[1]; metabolite nicotinate,-0.0538
same,Log2(fold change) ornithine,[1]; metabolite ornithine,0.0000
same,Log2(fold change) orotate,[1]; metabolite orotate,-0.5668
same,Log2(fold change) orotidine-5'-phosphate,[1]; metabolite orotidine-5'-phosphate,-1.0458
same,Log2(fold change) oxaloacetate,[1]; metabolite oxaloacetate,0.0000
same,Log2(fold change) p-aminobenzoate,[1]; metabolite p-aminobenzoate,0.0000
same,Log2(fold change) p-hydroxybenzoate,[1]; metabolite p-hydroxybenzoate,0.0000
same,Log2(fold change) pantothenate,[1]; metabolite pantothenate,0.0000
same,Log2(fold change) phenylalanine,[1]; metabolite phenylalanine,-0.5609
same,Log2(fold change) phenylpyruvate,[1]; metabolite phenylpyruvate,0.0000
same,Log2(fold change) phosphoenolpyruvate,[1]; metabolite phosphoenolpyruvate,0.3731
same,Log2(fold change) prephenate,[1]; metabolite prephenate,0.0000
same,Log2(fold change) proline,[1]; metabolite proline,-0.4274
same,Log2(fold change) pyridoxine,[1]; metabolite pyridoxine,-0.6579
same,Log2(fold change) pyruvate,[1]; metabolite pyruvate,-0.6264
same,Log2(fold change) riboflavin,[1]; metabolite riboflavin,-0.1882
same,Log2(fold change) ribose,[1]; metabolite ribose,-0.6495
same,Log2(fold change) ribose-phosphate,[1]; metabolite ribose-phosphate,-0.3829
same,Log2(fold change) ribulose-5-phosphate,[1]; metabolite ribulose-5-phosphate,-0.2140
same,Log2(fold change) serine,[1]; metabolite serine,-0.3504
same,Log2(fold change) sn-glycerol-3-phosphate,[1]; metabolite sn-glycerol-3-phosphate,0.0117
same,Log2(fold change) succinate/Methylmalonic acid,[1]; metabolite succinate/Methylmalonic acid,0.0257
same,Log2(fold change) succinyl-CoA/methylmalonyl-CoA,[1]; metabolite succinyl-CoA/methylmalonyl-CoA,0.0000
same,Log2(fold change) taurine,[1]; metabolite taurine,-0.1171
same,Log2(fold change) thiamine,[1]; metabolite thiamine,-0.2236
same,Log2(fold change) threonine/homoserine,[1]; metabolite threonine/homoserine,-0.3606
same,Log2(fold change) thymidine,[1]; metabolite thymidine,0.0000
same,Log2(fold changes) thymine,"[1]; metabolite thymine, log2 fold change",0.0000
same,Log2(fold changes) trehalose-6-Phosphate,"[1]; metabolite trehalose-6-Phosphate, log2 fold change",0.0000
same,Log2(fold changes) tryptophan,"[1]; metabolite tryptophan, log2 fold change",-0.3412
same,Log2(fold changes) tyrosine,"[1]; metabolite tyrosine, log2 fold change",-0.2808
same,Log2(fold changes) uridine,"[1]; metabolite uridine, log2 fold change",0.0000
same,IC50,[2],0.0013 µM
same,Ratio lowest IC50 8hr/IC50 72hr,[3]; 3D7-A10,11.6
same,IC50,"[3]; 3D7, read-out: Early rings Mean IC50 (IC50^8h), 8-h exposure 0–8 hr, 3D7-A10, survival at 60 h",0.0154 µM
same,IC50,"[3]; 3D7, read-out: Early trophozoites Mean IC50 (IC50^8h), 8-h exposure 16–24 hr, 3D7-A10, survival at 60 h",0.0195 µM
same,IC50,"[3]; 3D7, read-out: IC50^8h values, text summary of Table S1",< 0.3 µM
same,IC50,"[3]; 3D7, read-out: Late rings Mean IC50 (IC50^8h), 8-h exposure 8–16 hr, 3D7-A10, survival at 60 h",0.0158 µM
same,IC50,"[3]; 3D7, read-out: Late trophozoites Mean IC50 (IC50^8h), 8-h exposure 24–32 hr, 3D7-A10, survival at 60 h",0.0223 µM
same,IC50,"[3]; 3D7, read-out: Schizonts Mean IC50 (IC50^8h), 8-h exposure 32–40 hr, 3D7-A10, survival at 60 h",0.081 µM
same,Stage of peak activity (Figure 6),[3]; period when the parasite was most susceptible (lowest IC50^8h),ring and trophozoite stages; also recorded: both rings and trophozoites
